# Patent US12257237B2 (priority 2017, dated 2025)
# Values joined by “and” are separate entries in the source; they are usually repeats but may differ in a detail not shown here. Equal entries are not always repeated.
# Test system: DD013 dedifferentiated liposarcoma
# Assay: Antitumour activity in DD013 dedifferentiated liposarcoma xenograft model
# Format: in vivo, Athymic nude mice
# Description: Experiments were performed with female Athymic nude mice, 9-10 weeks old obtained from Harlan Laboratories (Udine, Italy). They were maintained under Specific Pathogen Free conditions with constant temperature and humidity, according to the institutional guidelines.
# Tumour growth mice was monitored two/three times a week (depending on tumour growth rate, to avoid unnecessary stress to the animals) by Vernier caliper. Mice were sacrificed when tumour reached a mean weight of 2±0.5 gr. The antitumour activity will be expressed as T/C %, where T and C were the mean tumour weight of treated and control groups, respectively. Mice were monitored daily and weighted at least two times a week. Tolerability was evaluated on the basis of body weight loss (BWL) and clinical observation.
# Statistical analysis was performed with GraphPad Prism version 6.01 software (GraphPad software, Inc., La Jolla, CA, USA). ANOVA test was performed to evaluate if there were statistically significant differences between treated and control groups.
# Briefly, xenografts were obtained by transplanting 3-4 mm tumour fragments s.c. in the flanks of mice. The growing tumour masses were measured with the aid of a Vernier caliper, and the tumour weights (TW, 1 mm^3=1 mg) were calculated by the formula: length×(width) 2/2. When tumour load achieved about 200-400 mg, mice were randomized into the experimental groups.
smiles,measurement,setting,value
"Cn1c(CCCCCCC(=O)NO)nc2cc(N(CCCl)CCCl)ccc21 [EDO-S101, 7-(5-(bis(2-chloroethyl)amino)-1-methyl-1H-benzo[d]imidazol-2-yl)-N-hydroxyheptanamide]","DD0113 tumour weight, Mean","EDO60: EDO-S101 60 mg/kg q7dx3, day 87 from inoculum",393.6 mg
same,"DD0113 tumour weight, Mean","EDO60: EDO-S101 60 mg/kg q7dx3, day 90 from inoculum",436.6 mg
same,"DD0113 tumour weight, individual mouse","EDO60: EDO-S101 60 mg/kg q7dx3, day 90 from inoculum, 60 mg/kg",118.4 mg and 56.3 mg and 626.5 mg and 82.7 mg and 234.7 mg and 492.6 mg and 49.6 mg
same,"DD0113 tumour weight, Mean","EDO60: EDO-S101 60 mg/kg q7dx3, day 94 from inoculum",476.6 mg
same,"DD0113 tumour weight, individual mouse","EDO60: EDO-S101 60 mg/kg q7dx3, day 94 from inoculum, 60 mg/kg",135.6 mg and 73.5 mg and 693.0 mg and 95.1 mg and 279.8 mg and 598.8 mg and 43.4 mg
same,"DD0113 tumour weight, Mean","EDO60: EDO-S101 60 mg/kg q7dx3, day 98 from inoculum",451.5 mg
same,"DD0113 tumour weight, individual mouse","EDO60: EDO-S101 60 mg/kg q7dx3, day 98 from inoculum, 60 mg/kg",113.6 mg and 57.9 mg and 655.0 mg and 70.1 mg and 225.1 mg and 584.9 mg and 30.7 mg
same,"DD0113 tumour weight, Mean","EDO60: EDO-S101 60 mg/kg q7dx3, day 100 from inoculum",518.4 mg
same,"DD0113 tumour weight, individual mouse","EDO60: EDO-S101 60 mg/kg q7dx3, day 100 from inoculum, 60 mg/kg",122.1 mg and 86.5 mg and 751.1 mg and 87.0 mg and 297.7 mg and 718.0 mg and 40.7 mg
same,"DD0113 tumour weight, Mean","EDO60: EDO-S101 60 mg/kg q7dx3, day 103 from inoculum",503.0 mg
same,"DD0113 tumour weight, individual mouse","EDO60: EDO-S101 60 mg/kg q7dx3, day 103 from inoculum, 60 mg/kg",70.5 mg and 747.9 mg and 89.6 mg and 231.0 mg and 670.9 mg and 37.5 mg
same,"DD0113 tumour weight, Mean","EDO60: EDO-S101 60 mg/kg q7dx3, day 111 from inoculum",502.0 mg
same,"DD0113 tumour weight, individual mouse","EDO60: EDO-S101 60 mg/kg q7dx3, day 111 from inoculum, 60 mg/kg",90.0 mg and 45.6 mg and 813.1 mg and 62.2 mg and 245.9 mg and 686.9 mg and 33.9 mg
same,"DD0113 tumour weight, Mean","EDO60: EDO-S101 60 mg/kg q7dx3, day 114 from inoculum",624.6 mg
same,"DD0113 tumour weight, individual mouse","EDO60: EDO-S101 60 mg/kg q7dx3, day 114 from inoculum, 60 mg/kg",131.7 mg and 81.4 mg and 999.4 mg and 119.1 mg and 284.3 mg and 935.9 mg and 61.0 mg
same,"DD0113 tumour weight, Mean","EDO60: EDO-S101 60 mg/kg q7dx3, day 118 from inoculum",747.2 mg
same,"DD0113 tumour weight, individual mouse","EDO60: EDO-S101 60 mg/kg q7dx3, day 118 from inoculum, 60 mg/kg",157.8 mg and 79.8 mg and 1342.5 mg and 134.3 mg and 364.6 mg and 1024.5 mg and 64.1 mg
same,"DD0113 tumour weight, Mean","EDO80: EDO-S101 80 mg/kg single dose, day 23 from inoculum",198.0 mg
same,"DD0113 tumour weight, individual mouse","EDO80: EDO-S101 80 mg/kg single dose, day 23 from inoculum, 80 mg/kg",361.8 mg and 272.9 mg and 241.0 mg and 225.2 mg and 191.6 mg
same,"DD0113 tumour weight, Mean","EDO80: EDO-S101 80 mg/kg single dose, day 26 from inoculum",253.1 mg
same,"DD0113 tumour weight, individual mouse","EDO80: EDO-S101 80 mg/kg single dose, day 26 from inoculum, 80 mg/kg",410.2 mg and 433.7 mg and 275.2 mg and 338.5 mg and 196.8 mg
same,"DD0113 tumour weight, Mean","EDO80: EDO-S101 80 mg/kg single dose, day 29 from inoculum",251.2 mg
same,"DD0113 tumour weight, individual mouse","EDO80: EDO-S101 80 mg/kg single dose, day 29 from inoculum, 80 mg/kg",399.5 mg and 447.9 mg and 310.3 mg and 335.3 mg and 179.1 mg
same,"DD0113 tumour weight, Mean","EDO80: EDO-S101 80 mg/kg single dose, day 33 from inoculum",251.0 mg
same,"DD0113 tumour weight, individual mouse","EDO80: EDO-S101 80 mg/kg single dose, day 33 from inoculum, 80 mg/kg",456.2 mg and 408.9 mg and 293.6 mg and 271.4 mg and 220.9 mg
same,"DD0113 tumour weight, Mean","EDO80: EDO-S101 80 mg/kg single dose, day 36 from inoculum",256.4 mg
same,"DD0113 tumour weight, individual mouse","EDO80: EDO-S101 80 mg/kg single dose, day 36 from inoculum, 80 mg/kg",466.8 mg and 431.6 mg and 284.2 mg and 280.3 mg and 194.9 mg
same,"DD0113 tumour weight, Mean","EDO80: EDO-S101 80 mg/kg single dose, day 40 from inoculum",283.7 mg
same,"DD0113 tumour weight, individual mouse","EDO80: EDO-S101 80 mg/kg single dose, day 40 from inoculum, 80 mg/kg",569.1 mg and 476.7 mg and 364.0 mg and 279.7 mg and 216.2 mg
same,"DD0113 tumour weight, Mean","EDO80: EDO-S101 80 mg/kg single dose, day 43 from inoculum",284.8 mg
same,"DD0113 tumour weight, individual mouse","EDO80: EDO-S101 80 mg/kg single dose, day 43 from inoculum, 80 mg/kg",500.6 mg and 547.3 mg and 355.5 mg and 255.8 mg and 227.9 mg
same,"DD0113 tumour weight, Mean","EDO80: EDO-S101 80 mg/kg single dose, day 47 from inoculum",326.3 mg
same,"DD0113 tumour weight, individual mouse","EDO80: EDO-S101 80 mg/kg single dose, day 47 from inoculum, 80 mg/kg",626.2 mg and 643.5 mg and 338.2 mg and 321.9 mg and 275.0 mg
same,"DD0113 tumour weight, Mean","EDO80: EDO-S101 80 mg/kg single dose, day 50 from inoculum",384.4 mg
same,"DD0113 tumour weight, individual mouse","EDO80: EDO-S101 80 mg/kg single dose, day 50 from inoculum, 80 mg/kg",686.0 mg and 716.7 mg and 447.7 mg and 447.8 mg and 297.1 mg
same,"DD0113 tumour weight, Mean","EDO80: EDO-S101 80 mg/kg single dose, day 54 from inoculum",418.9 mg
same,"DD0113 tumour weight, Mean","EDO80: EDO-S101 80 mg/kg single dose, day 58 from inoculum",511.4 mg
same,"DD0113 tumour weight, Mean","EDO80: EDO-S101 80 mg/kg single dose, day 62 from inoculum",549.2 mg
same,"DD0113 tumour weight, Mean","EDO80: EDO-S101 80 mg/kg single dose, day 65 from inoculum",540.3 mg
same,"DD0113 tumour weight, Mean","EDO80: EDO-S101 80 mg/kg single dose, day 69 from inoculum",531.6 mg
same,"DD0113 tumour weight, Mean","EDO80: EDO-S101 80 mg/kg single dose, day 72 from inoculum",581.5 mg
same,"DD0113 tumour weight, Mean","EDO80: EDO-S101 80 mg/kg single dose, day 75 from inoculum",560.9 mg
same,"DD0113 tumour weight, Mean","EDO80: EDO-S101 80 mg/kg single dose, day 79 from inoculum",564.1 mg
same,"DD0113 tumour weight, Mean","EDO80: EDO-S101 80 mg/kg single dose, day 83 from inoculum",475.0 mg
same,"DD0113 tumour weight, Mean","EDO80: EDO-S101 80 mg/kg single dose, day 87 from inoculum",594.1 mg
same,"DD0113 tumour weight, Mean","EDO80: EDO-S101 80 mg/kg single dose, day 90 from inoculum",638.8 mg
same,"DD0113 tumour weight, Mean","EDO80: EDO-S101 80 mg/kg single dose, day 94 from inoculum",826.0 mg
same,"DD0113 tumour weight, Mean","EDO80: EDO-S101 80 mg/kg single dose, day 98 from inoculum",927.2 mg
same,"DD0113 tumour weight, Mean","EDO80: EDO-S101 80 mg/kg single dose, day 100 from inoculum",1209.8 mg
same,"DD0113 tumour weight, Mean","EDO80: EDO-S101 80 mg/kg single dose, day 103 from inoculum",1301.2 mg
